Key:
JIMT-1 cells [1] = assay: Monolayer growth inhibition, Alamar blue assay; format: cell-based; conditions: Homo sapiens; JIMT-1 (HER2), 5 days, single dose on day 1
Description: (§1) In all instances a single dose was given on day 1 of the experiment.

MDA-MB-231 cells [2] = assay: Monolayer growth inhibition, Alamar blue assay; format: cell-based; conditions: Homo sapiens; MDA-MB-231 (TNBC), 5 days, single dose on day 1
Description: as §1

PC3 cells [3] = assay: Monolayer growth inhibition, Alamar blue assay; format: cell-based; conditions: Homo sapiens, PC-3; PC3 (Prostate), 5 days, single dose on day 1
Description: as §1

HCC1937 cells [4] = assay: Monolayer growth inhibition, Alamar blue assay; format: cell-based; conditions: Homo sapiens; HCC1937 (TNBC, BRCA Mutant), 5 days, single dose on day 1
Description: as §1

MDA-MB-435 cells [5] = assay: Monolayer growth inhibition, Alamar blue assay; format: cell-based; conditions: Homo sapiens; MDA-MB-435 (Melanoma), 5 days, single dose on day 1
Description: as §1

4T1 cells [6] = assay: Monolayer growth inhibition, Alamar blue assay; format: cell-based; conditions: Mus musculus; 4T1 (TNBC), 5 days, single dose on day 1
Description: as §1

HCC1143 cells [7] = assay: Monolayer growth inhibition, Alamar blue assay; format: cell-based; conditions: Homo sapiens; HCC1143 (TNBC), 5 days, single dose on day 1
Description: as §1

SUM149 cells [8] = assay: Monolayer growth inhibition, Alamar blue assay; format: cell-based; conditions: Homo sapiens; SUM149 (TNBC, BRCA Mutant), 5 days, single dose on day 1
Description: as §1

MDA-MB-468 cells [9] = assay: Monolayer growth inhibition, Alamar blue assay; format: cell-based; conditions: Homo sapiens; MDA-MB-468 (TNBC), 5 days, single dose on day 1
Description: as §1

MDA-MB-468 cells [10] = assay: Soft agar growth inhibition assay; format: cell-based, Human; conditions: Homo sapiens; MDA-MB-468 (TNBC), 14-22 days
JIMT-1 cells [11] = assay: Monolayer growth inhibition, crystal violet assay; format: cell-based; conditions: Homo sapiens; JIMT-1 (HER2), 5 days, single dose on day 1
Description: (§2) In all instances a single dose was given on day 1 of the experiment. […] Complete (100%) growth suppression was achievable with several of the compounds in multiple different cell lines.

T47D cells [12] = assay: Monolayer growth inhibition, crystal violet assay; format: cell-based; conditions: Homo sapiens; T47D (ER/PR), 5 days, single dose on day 1
Description: as §2

HCC1937 cells [13] = assay: Monolayer growth inhibition, crystal violet assay; format: cell-based; conditions: Homo sapiens; HCC1937 (TNBC, BRCA Mutant), 5 days, single dose on day 1
Description: as §2

MDA-MB-468 cells [14] = assay: Monolayer growth inhibition, crystal violet assay; format: cell-based; conditions: Homo sapiens; MDA-MB-468 (TNBC), 5 days, single dose on day 1
Description: as §2

All cell lines [15] = assay: Monolayer growth inhibition, Alamar blue assay, range over all cell lines; format: cell-based; conditions: 120 h; range of IC50 over all cell lines of the table; read-out: IC50 Values - Alamar Blue (5 Days), Range, All
Description: as §1

All cell lines [16] = assay: Monolayer growth inhibition, crystal violet assay, range over all cell lines; format: cell-based; conditions: 120 h; range of IC50 over all cell lines of the table; read-out: IC50 Values - Crystal Violet (5 Days), Range, All
Description: as §2

[17] = Solubility assessment, 20 mg/ml solution; format: physicochemical; conditions: 100 mM in DMSO diluted in DMEM growth media to 20 mg/ml
Description: Solubility is an important property for therapeutic drug candidates. Poor solubility can lead to low bioavailability resulting in suboptimal drug delivery. It can also prevent the evaluation of test agents in animals because the concentration(s) needed to achieve the desired effect cannot be achieved to poor solubility. For solubility assessments, small molecules targeting RSK were compared. For these assessments, 100 mM solutions of the compounds dissolved in DMSO were diluted in DMEM growth media (Life Technologies) supplemented with fetal bovine serum (FBS, Life Technologies) and 100 units/ml penicillin and 100 units/ml streptomycin (Life Technologies) to make 20 mg/ml solutions. Once diluted, the solutions were vortexed and examined for the formation of precipitates. […] For Compound 26, a 100 mM solution of the compound dissolved in DMSO was diluted in phosphate buffered saline (Life Technologies) to make a 20 mg/ml solution. The stock of […] was chosen because this is the upper end of what would be required to dose mice for a range of studies including MTD, PK, PD and efficacy. The pH of this solution was determined to be 2, as previously described. […] At high concentrations some RSK inhibitors were highly soluble while others were not. Compound 0 is (R)—N-(1-benzyl-1H-pyrazol-4-yl)-9-methyl-6-oxo-6,7,8,9-tetrahydropyrido[3′,2′:4,5]pyrrolo[1,2-a]pyrazine-2-carboxamide. Compound 0 was not soluble, whereas Compounds 18, 20, 21, 25 and 26 were soluble under the same conditions (Table 5).

[18] = tested on: phosphorylated Y-box binding protein-1 (YB-1) at serine 102 (P-YB-1S102); assay: Immunoblotting of cell signalling, loss of P-YB-1 in MDA-MB-231 cells; conditions: Homo sapiens, MDA-MB-231, read-out: IC50 values for P-YB-1
Description: Following desired experimental conditions, breast cancer cell lines grown and treated in 6 well plates or 100 mm culture dishes (Grenier Bio-One) were placed on ice and the supernatant from each well was removed and the cells were washed in cold PBS. Following removal of PBS, cells were exposed to radioimmunoprecipitation assay (RIPA) buffer (50 mM Tris-HCl (pH 8), 150 mM NaCl, 1% NP-40, 0.5% sodium deoxycholate, 0.1% SDS; Fisher Scientific) supplemented with 1% phosphatase inhibitor (Fisher Scientific) and 1% protease inhibitor (Fisher Scientific) for 10 minutes. Samples were transferred to eppendorf tubes, vortexed and then centrifuged at 14 000 rpm for 10 minutes. Supernatants were collected as whole cell lysates.
To begin, the protein content of the lysates was measured using the Bicinchoninic Acid (BCA) Protein Assay Kit (Pierce), which included a protein standard curve generated with bovine serum albumin. Appropriate volumes of samples and loading buffer (50 mM Tris-HCl (pH 6.8), 2% SDS, 10% glycerol, 1% j-mercaptoethanol, 12.5 mM EDTA, 0.02% bromophenol blue) were mixed, ensuring that equal amounts of protein were loaded. For the majority of experiments in this study, 30 μg of protein per well was loaded. Samples were then resolved on SDS-PAGE (polyacrylamide gel electrophoresis) using various percentages of acrylamide gels (8%-12%), depending on the proteins of interest. SDS-PAGE was run in SDS running buffer (25 mM Tris, 192 mM glycine, 0.1% SDS) and then transferred to nitrocellulose membranes (Bio-Rad) in transfer buffer (48 mM Tris, 39 mM glycine, 20% (v/v) methanol) at 100 volts for 90 minutes at room temperature. Immunoblots were then blocked in 5% skim milk in tris-buffered saline with 0.1% Tween-20 (TBS-T; 50 mM Tris-HCl, pH 7.5, 150 mM NaCl, 0.1% (v/v) Tween-20 (Fisher Scientific)) for 1 to 2 hours. Immunoblots were then incubated with selected primary antibodies diluted in TBS-T with 0.1% gelatin (Bio-Rad) and 0.05% sodium azide (Alfa Aesar) overnight. Following washes with TBT-T 4 times for 8 to 10 minutes, immunoblots were incubated with appropriate secondary antibodies conjugated to horseradish peroxidise (Cell Signalling Technology) diluted in TBS-T plus 5% skim milk at a ratio of 1:5000 for 2 hours at room temperature. After an additional round of washes in TBS-T, immunoblots were exposed to combined enhanced chemiluminescence (ECL) reagents (Fisher Scientific) for 1 minute and developed using ChemiDoc MP Imaging System (Bio-Rad). For certain immunoblots, bands of proteins of interest were scanned and band intensity ratios were determined by densitometric analysis (ImageJ). […] Total YB-1 was used as a loading control (1:5000 Abcam). […] To assess whether cells are actively undergoing cell death, the activity of poly ADP ribose polymerase (PARP) (1:1000 CST) was also measured using the immunoblotting method.

MDA-MB-231 cells [19] = assay: Monolayer growth inhibition, crystal violet assay; format: cell-based; conditions: Homo sapiens; MDA-MB-231 (TNBC), 5 days, single dose on day 1
Description: as §1

SUM149-PTXR cells [20] = assay: Monolayer growth inhibition, crystal violet assay; format: cell-based; conditions: Homo sapiens; SUM149-PTXR (TNBC, BRCA Mutant), 5 days, single dose on day 1
Description: as §1

PC3 cells [21] = assay: Monolayer growth inhibition, crystal violet assay; format: cell-based; conditions: Homo sapiens, PC-3; PC3 (Prostate), 5 days, single dose on day 1
Description: as §1

MDA-MB-435 cells [22] = assay: Monolayer growth inhibition, crystal violet assay; format: cell-based; conditions: Homo sapiens; MDA-MB-435 (Melanoma), 5 days, single dose on day 1
Description: as §1

4T1 cells [23] = assay: Monolayer growth inhibition, crystal violet assay; format: cell-based; conditions: Mus musculus; 4T1 (TNBC), 5 days, single dose on day 1
Description: as §1

HCC1143 cells [24] = assay: Monolayer growth inhibition, crystal violet assay; format: cell-based; conditions: Homo sapiens; HCC1143 (TNBC), 5 days, single dose on day 1
Description: as §1

SUM149 cells [25] = assay: Monolayer growth inhibition, crystal violet assay; format: cell-based; conditions: Homo sapiens; SUM149 (TNBC, BRCA Mutant), 5 days, single dose on day 1
Description: as §1

SUM149-PTXR cells [26] = assay: Monolayer growth inhibition, Alamar blue assay; format: cell-based, Human; conditions: Homo sapiens; SUM149-PTXR (TNBC, BRCA Mutant), 5 days, single dose on day 1
Description: as §1

T47D cells [27] = assay: Monolayer growth inhibition, Alamar blue assay; format: cell-based, Human; conditions: Homo sapiens; T47D (ER/PR), 5 days, single dose on day 1
Description: as §1

4T1 cells [28] = assay: Soft agar growth inhibition assay; format: cell-based; conditions: Mus musculus; 4T1 (TNBC), 14-22 days; read-out: IC50 Values - Soft Agar (14-22 Days)
Description: Two agar (Alfa Aesar) solutions (0.8% w/v and 0.4% w/v) were prepared in ultrapure water. The 0.8% agar solution was mixed in equal volumes with 2× media previously prepared from powder (Life Technologies) following the manufacturer's instructions and filter sterilized. The 0.8% agar and media solution was added to 24 well plates (Mandel Scientific) at 500 μl per well. The plates were placed in a humidified incubator at 37° C. with 5% CO2. Next, the 0.4% agar solution was mixed in equal volumes with 2× media. Breast cancer cell lines were added to this solution to achieve a final concentration of 2×10^4 cells per well and […] was added to each well on top of the bottom agar and media layer. […] The plates were returned to the incubator for 10-32 days, with a re-dosing of compounds or DMSO every 7 days. After 10-32 days, colonies were counted in 3 different fields of view for each well.
Representative compounds described herein were tested in the soft agar growth inhibition assay against the 4T1 breast cancer cell line.

MDA-MB-231 cells [29] = assay: Soft agar growth inhibition assay; format: cell-based; conditions: Homo sapiens
MDA-MB-231 cells [30] = assay: Combination with paclitaxel, monolayer growth (crystal violet); conditions: MDA-MB-231 cells + 0.3 nM PTX, 5 days
Description: 1×10^3 cells per well were seeded for a final volume of 200 μl per well and plates were incubated for 5 days at 37° C. in a humidified incubator with 5% CO2. Following the incubation period, cell survival was quantified by Alamar blue assay (Life Technologies). Briefly, media from each well was replaced with 100 μl of phosphate buffer saline (PBS, Life Technologies) and cells were incubated with 5% Alamar blue, which incorporates a propriety redox indicator that changes colour in response to metabolic activity, for up to 2 hours. During this period of incubation, the absorbance at 570 nm and 600 nm was measured at various time points, depending on the cell line or sample. Percent survival was calculated by comparing the absorbance ratio of the test well to the control well multiplied by 100%, as indicated in the following formula:
Following, plates were prepared for crystal violet staining. To begin, 100 μl of an 8% formaldehyde (Alfa Aesar) solution diluted in PBS was added to each well and plates were stored at 4° C. overnight. Next, the formaldehyde solution was discarded and the wells were washed with 200 μl ultrapure water per well three times. Following, 50 μl of a 0.5% crystal violet solution (0.5% w/v crystal violet (Alfa Aesar), 25% methanol (VWR)) was added to each well and incubated at room temperature for 20 minutes. The crystal violet solution was discarded and wells were washed with 200 μl ultrapure water per well three times. Next, 50 μl of a 5% sodium dodecyl sulphate (SDS) (Alfa Aesar) was added to each well and the absorbance at 590 nm was measured.

CD34+ cells = assay: Colony forming unit hematopoietic stem cell assay; format: cell-based, human
Description: The hematopoietic colony forming cell assay was conducted based on a protocol outlined by StemCell Technologies. […] Following the addition of CD34^+ cells isolated from human cord blood or peripheral blood (StemCell Technologies) at a final concentration of 5×10^2 cells per dish, the tubes were vortexed and allowed to stand for 5 minutes at room temperature. Next, the MethoCult mixtures were dispensed into 35 mm dishes (Corning Incorporated) through blunt end needles (StemCell Technologies) and 5 ml syringes (BD Biosciences) at a volume of 1.1 ml per dish. The medium was evenly distributed across the surface of each dish by gentle tilting and rotation. The dishes were then placed in a 100 mm culture dish (Grenier Bio-One) containing additional 35 mm dishes with sterile water to maintain humidity. […] The number of myeloid and erythroid derived colonies in both the treated and control dishes were counted and compared.

C[C@@H]1CNC(=O)c2c(Cl)c3ccc(C(=O)Nc4cnn(Cc5ccccc5)c4)nc3n21 [Compound 24, (R)—N-(1-benzyl-1H-pyrazol-4-yl)-5-chloro-9-methyl-6-oxo-6,7,8,9-tetrahydropyrido[3′,2′:4,5]pyrrolo[1,2-a]pyrazine-2-carboxamide]
IC50 (JIMT-1 cells [1]): 12.3 ± 5.9 µM | IC50 (MDA-MB-231 cells [2]): 9.8 ± 3.1 µM | IC50 (PC3 cells [3]): 12 ± 4.5 µM | IC50 (HCC1937 cells [4]): 9.2 ± 3.2 µM | IC50 (MDA-MB-435 cells [5]): 5.6 ± 0.1 µM | IC50 (4T1 cells [6]): 500 ± 300 nM | IC50 (HCC1143 cells [7]): 4.4 ± 1.9 µM | IC50 (SUM149 cells [8]): 1100 ± 900 nM | IC50 (MDA-MB-468 cells [9]): 4.5 ± 2.3 µM | IC50 (MDA-MB-468 cells [10]): 2500 ± 2000 nM | IC50 (JIMT-1 cells [11]): 7.5 ± 2.2 µM | IC50 (T47D cells [12]): 2700 ± 2100 nM | IC50 (HCC1937 cells [13]): 5.8 ± 0.4 µM | IC50 (MDA-MB-468 cells [14]): 3.3 ± 1.3 µM | IC50 (All cell lines [15]): 0.5 to 12.3 µM | IC50 (All cell lines [16]): 0.3 to 9.1 µM | Solubility, 20 mg/ml Solution [17]: Precipitate | IC50 [18]: 16 nM | IC50 (MDA-MB-231 cells [19]): 9.1 ± 1.3 µM | IC50 (SUM149-PTXR cells [20]): 4.5 ± 1.4 µM | IC50 (PC3 cells [21]): 6.5 ± 2.8 µM | IC50 (MDA-MB-435 cells [22]): 5 ± 3.6 µM | IC50 (4T1 cells [23]): 300 ± 100 nM | IC50 (HCC1143 cells [24]): 5.8 ± 2.6 µM | IC50 (SUM149 cells [25]): 900 ± 300 nM | IC50 (SUM149-PTXR cells [26]): 3.4 ± 2.1 µM | IC50 (T47D cells [27]): 4.5 ± 4.1 µM | IC50 (4T1 cells [28]): 700 ± 300 nM | IC50 (MDA-MB-231 cells [29]; MDA-MB-231 (TNBC), 14-22 days, read-out: IC50 Values - Soft Agar (14-22 Days)): 400 ± 200 nM

CC(=O)O[C@H]1C(=O)[C@@]2(C)[C@H]([C@H](OC(=O)c3ccccc3)[C@]3(O)C[C@H](OC(=O)[C@H](O)[C@@H](NC(=O)c4ccccc4)c4ccccc4)C(C)=C1C3(C)C)[C@]1(OC(C)=O)CO[C@@H]1C[C@@H]2O [Taxol, paclitaxel, reference compound]
% Survival (MDA-MB-231 cells [30]): MDA-MB-231 cells + 0.3 nM PTX: % Survival = 47.7% | IC50 (CD34+ cells; Homo sapiens, Hematopoietic stem cell, CD34+ cells from peripheral blood, read-out: CD34+ (PB) IC50): 9.7 nM | Therapeutic Window (CD34+ cells; ratio IC50 against CD34+ cells and MDA-MB-231 cells (SA)): 6.9X | IC50 (MDA-MB-231 cells [29]; MDA-MB-231, growth in soft agar (SA), read-out: MDA-MB-231 IC50 (SA)): 1.4 nM

— patent US10081632B2, “Substituted tetrahydropyrido[3′,2′:4,5]pyrrolo[1,2-α]pyrazine-2-carboxamides as RSK inhibitors” (Phoenix Molecular Designs, priority 2016, dated 2018)
